Assays:
linear DNA = experiment: Binding assay with a linear DNA; conditions: in a certain period of time
supercoiled plasmid DNA = experiment: Mixing with supercoiled plasmid DNA, electrophoresis; format: binding; conditions: electrophoresis after a period of time
[1] = system: supercoiled plasmid (pcDNA) with or without T4 GP41 DNA helicase; experiment: DNA binding test involving helicase (gel electrophoresis); format: biochemical; conditions: Test 1 vs Test 4; 0.1 mmol/L, 1 hour, 37° C.
Excerpt: In this experiment, the effect of a helicase on carboplatin 4.0 was verified by a DNA binding test involved by the helicase, including: using the supercoiled and linear plasmid DNA (Hr. pcDNA, which can be extracted in a conventional manner) as a template, changing the DNA conformation through reactions by combining with different platinum-based anticancer drugs, and then distinguishing different platinum drugs by differences in gel electrophoretograms. […]
The following samples (test numbers 1-5 and M) were analyzed under the above experimental conditions, and the addition of pcDNA, drugs, and helicases in each sample was shown as follows: • Test 1: pcDNA+Carboplatin+T4 • Test 2: pcDNA+Carboplatin 4.0+T4 • Test 3: pcDNA+Carboplatin 4.0 • Test 4: pcDNA+Carboplatin • Test 5: pcDNA Test M: Marker (Reference Standard)

[2] = Cytotoxicity experiments for antiviral application; format: cell-based

## N.N.O=C([O-])C1(C(=O)[O-])CCC1.[Pt+2] [carboplatin]
Linear DNA
  cross-linking with linear DNA: quickly forms a cross-linked adduct with DNA
Supercoiled plasmid DNA
  crosslinking with supercoiled plasmid DNA: crosslinks with the supercoiled plasmid DNA to form a adduct
[1]
  effect of the helicase on DNA binding of the drug: no obvious effect
[2]
  cytotoxicity evaluation for application in an antiviral aspect: hinders its application in the antiviral aspect
